Reference: patent US11096941B2, “Methods of treating circadian rhythm sleep disorders” (Eisai R&D Management Co., Ltd., priority 2016, dated 2021)
Marks after values point to notes of the source that are not given here.

How the values were obtained:
[1] = test system: male senescence accelerated mouse resistant-1 (SAMR1, R1) strain animals; assay: Sleep/wake EEG/EMG recording and wake circadian phase in SAMR1 mice after oral administration; assay type: in vivo
Source text: (§1) A compound of Formula (I) was finely crushed and suspended in vehicle, a mixture of 0.5% w/v methylcellulose 400 cP in distilled water. Experimental data were collected on male senescence accelerated mouse prone-8 (“SAMP8” or “P8”) strain animals and male senescence accelerated mouse resistant-1 (“SAMR1” or “R1”) strain animals at the age of 21 weeks. P8 mice are known to show accelerated symptoms of aging and also pathological and behavioral symptoms of Alzheimer's disease, while R1 mice are used to represent a normal aging process and are also used as a control strain for P8 mice. See, e.g., Miyamoto, et al., Exp. Geron., 1997, 32, 139-48; Morley et al., Curr. Pharm. Des., 2012, 18, 1123-30.
(§2) Electroencephalogram (“EEG”) and electromyogram (“EMG”) electrodes were implanted on each mouse at 17-18 weeks of age, and the mice were then allowed to recover for at least 18 days in individual recording cages, where they could freely move, under a 12-hour light/12-hour dark cycle. Amplified EEG and EMG signals were digitally recorded for 3 days, separated into individual 24-hour recordings, which were initiated at each lights-on event. During the first 30 minutes of the light cycle (ZT 0-0.5), each mouse received an oral administration of either vehicle or 3 mg/kg of the compound of Formula (I) in vehicle or 30 mg/kg of the compound of Formula (I) in vehicle, after which the sleep/wake behavior of mice was recorded until the next lights on event. Each mouse received every treatment in a cross-over fashion with one treatment per day in the following order: vehicle (10 mL/kg bodyweight), 3 mg/kg, and then 30 mg/kg. Some mice started with vehicle on day 1, some mice started with 3 mg/kg compound of Formula (I) on day 1, and some mice started with 30 mg/kg compound of Formula (I) on day 1.
(§3) EEG frequency and EMG activity signal data were analyzed using software from Kissei Comtec Co., Ltd. to characterize every 10 second epoch as either rapid eye movement (REM) sleep, non-REM sleep, or wakefulness. Then, accumulated wakefulness, non-REM sleep, and REM sleep times over the light cycle (11.5 hours) and the dark cycle (12 hours) were calculated. Additionally, latencies to sleep and REM sleep were calculated as the first appearance of 6 or more epochs of uninterrupted sleep or one or more epochs of REM sleep after the dosing event, respectively. The circadian rhythm parameter phase was determined as the inflection point of a cosine curve fit to the wakefulness distribution in 30 minute bins across the day for every individual mouse using JTK_CYCLE software. Hughes, et al., J. Biol. Rhythms, 2010, 25, 372-80.
(§4) The differences between P8 mice and R1 mice (control mice) were statistically analyzed by comparing sleep/wake behavior and circadian rhythm of the vehicle-treated animals of each strain, while the effect of administration of a compound of Formula (I) on sleep/wake behavior and circadian rhythm was statistically analyzed for each strain as the difference between sleep/wake behavior and circadian rhythm on the vehicle-administration day and sleep/wake behavior and circadian rhythm on a drug-administration day. Statistical analysis of wakefulness time, non-REM sleep time, REM sleep time and latency, and sleep latency was performed with a linear mixed model which specified animal as random effect, and day, strain, treatment and the interaction between strain and treatment as fixed effects with Kenward-Roger as denominator degrees of freedom using SAS software. For estimation of wakefulness phase and its covariance, a linear mixed model was used which assumed heterogeneous variance of strain and treatment combination with Kenward-Roger as denominator and degrees of freedom using SAS software.

[2] = test system: male senescence accelerated mouse prone-8 (SAMP8, P8) strain animals; assay: Sleep/wake EEG/EMG recording and wake circadian phase in SAMP8 mice after oral administration; assay type: in vivo; details: for Wake circadian phase, Phase (ZT): least square mean ± standard error
Source text: as §1, §2, §3, §4

[3] = 3 and 30 mg/kg oral during ZT 0-0.5, vs vehicle
[4] = 3 and 30 mg/kg oral, vs vehicle (FIG. 2)
[5] = P8 mice, 3 mg/kg oral at ZT 0-0.5
[6] = P8 mice, 30 mg/kg oral at ZT 0-0.5
[7] = P8 mice, 3 and 30 mg/kg oral during ZT 0-0.5, vs vehicle
[8] = P8 mice, 3 and 30 mg/kg oral, vs vehicle (FIG. 2)

What does the source list for Cc1ncc(OC[C@@]2(c3cccc(F)c3)C[C@H]2C(=O)Nc2ccc(F)cn2)c(C)n1 [compound of Formula (I), (1R,2S)-2-(((2,4-dimethylpyrimidin-5-yl)oxy)methyl)-2-(3-fluorophenyl)-N-(5-fluoropyridin-2-yl)cyclopropanecarboxamide]?
Covariance of Phase ([1]; 3 mg/kg oral at ZT 0-0.5): 5.18; Wake circadian phase, Phase (ZT) ([1]; 3 mg/kg oral at ZT 0-0.5, least square mean ± standard error): 15.65 ± 0.87 ZT; vigilance states (wakefulness, non-REM sleep, REM sleep) during dark time ([1]; 3 mg/kg oral in previous light time, ZT 12-24): no effect on each of the vigilance states; Covariance of Phase ([1]; 30 mg/kg oral at ZT 0-0.5): 0.05; Wake circadian phase, Phase (ZT) ([1]; 30 mg/kg oral at ZT 0-0.5, least square mean ± standard error): 17.02 ± 0.35^a ZT; wakefulness time during dark time ([1]; 30 mg/kg oral in previous light time, ZT 12-24 (FIG. 1A)): decrease of wakefulness; non-REM sleep time during dark time ([1]; 30 mg/kg oral in previous light time, ZT 12-24 (FIG. 1B)): increase of non-REM sleep; wakefulness time during light time ([1]; 3 and 30 mg/kg oral at beginning of light time, ZT 0.5-12, vs vehicle (FIG. 1A)): reduces, in a dose-dependent manner, wakefulness; phase covariance and phase variability (in words) [1, 3]: reduction in phase covariance and phase variability; wake phase shift (in words) [1, 3]: dose-dependent significant delay (right-shift) of the wake phase; non-REM sleep time during light time ([1]; 3 and 30 mg/kg oral, ZT 0.5-12, vs vehicle (FIG. 1B)): increases non-REM sleep; REM sleep time during light time ([1]; 3 and 30 mg/kg oral, ZT 0.5-12, vs vehicle (FIG. 1C)): dose-dependent increase in the amount of REM sleep; REM sleep latency [1, 4]: dose-dependent reduction of sleep and REM sleep latencies; sleep latency [1, 4]: dose-dependent reduction of sleep and REM sleep latencies; Covariance of Phase [2, 5]: 1.32; Wake circadian phase, Phase (ZT) [2, 5]: 14.00 ± 0.56 ZT; Covariance of Phase [2, 6]: 2.11; Wake circadian phase, Phase (ZT) [2, 6]: 15.41 ± 0.64^b ZT; wakefulness time during light time ([2]; P8 mice, 3 and 30 mg/kg oral at beginning of light time, ZT 0.5-12, vs vehicle (FIG. 1A)): reduces, in a dose-dependent manner, wakefulness; phase covariance and phase variability (in words) [2, 7]: reduction in phase covariance and phase variability; wake phase shift (in words) [2, 7]: dose-dependent and significant delay (right-shift) of the wake phase; wakefulness time during dark time ([2]; P8 mice, 3 and 30 mg/kg oral in previous light time, ZT 12-24 (FIG. 1A)): dose-dependent increase in wakefulness; non-REM sleep time during dark time ([2]; P8 mice, 3 and 30 mg/kg oral in previous light time, ZT 12-24 (FIG. 1B)): decreases in non-REM sleep and REM sleep; REM sleep time during dark time ([2]; P8 mice, 3 and 30 mg/kg oral in previous light time, ZT 12-24 (FIG. 1C)): decreases in non-REM sleep and REM sleep; non-REM sleep time during light time ([2]; P8 mice, 3 and 30 mg/kg oral, ZT 0.5-12, vs vehicle (FIG. 1B)): increases non-REM sleep; REM sleep time during light time ([2]; P8 mice, 3 and 30 mg/kg oral, ZT 0.5-12, vs vehicle (FIG. 1C)): dose-dependent increase in the amount of REM sleep; REM sleep latency [2, 8]: dose-dependent reduction of sleep and REM sleep latencies; sleep latency [2, 8]: dose-dependent reduction of sleep and REM sleep latencies; wake phase relative to vehicle-treated R1 mice ([2]; treated P8 mice, administration during ZT 0-0.5): correction to the level of vehicle-treated R1 mice; amounts of wake and non-REM sleep in light time relative to vehicle-treated R1 mice ([2]; treated P8 mice, light time): normalized to the level of vehicle-treated R1 mice
